Key:
[1] = tested on: IL-6 induced pSTAT3; experiment: IL-6 induced pSTAT3 assay in TF-1 cells; format: cell-based; conditions: Homo sapiens, read-out: Cellular selectivity (IL-6/pSTAT3)
Method: The following example describes the IL-6 induced pSTAT3 assay used to determine the cellular selectivity (IL-6/pSTAT3) of the TYK2 inhibitors.
TF-1 (ATCC®, CRL-2003™) cells were cultured in RPMI 1640 Medium, with GlutaMAX™ Supplement, HEPES for Cell Culture (Life Technologies, 72400047), 10% Fetal Bovine Serum (Life Technologies, 26400044), 2 ng/mL human recombinant GM-CSF (Life Technologies, PHC2013), 1 mM Sodium pyruvate (Life Technologies, 11360039), 1% MEM NEAA (Life Technologies, 11140-035), 1% Penicillin/Streptomycin (Life Technologies, 15140-122).
TF-1 (70×10^6) cells were starved overnight in T150 flasks (Opti-MEM™ I Reduced Serum Medium, no phenol red (Life Technologies, 11058-021), 1 mM Na pyruvate (Life Technologies, 11360039), 1% MEM NEAA (Life Technologies, 11140-035), and 1% Penicillin/Streptomycin (Life Technologies, 15140-122)) then seeded into 96-well TPP plates (150 000 cell/well) and incubated with test compounds (Final Concentration [nM]10000-0.05) for 30 minutes at 37° C. […] Stimulation was terminated by addition of lysis buffer (MSD K150SVD) and pSTAT3 detection was measured with Phospho-STAT3 (Tyr705) Kit MSD K150SVD)) according to manufacturer's instruction. Briefly, cell lysates were added to pre-blocked plates, sealed, and shake for 1 hour at room temperature. Plates were then washed and incubated with detection antibody for 1 hour at room temperature. After washing, Read Buffer was added, and plates were read on MSD instrument (Model 1300 MSD Quickplex SQ120).

[2] = tested on: GM-CSF induced pSTAT5; experiment: GM-CSF induced pSTAT5 assay in CellSensor irf1-bla TF-1 cells; format: cell-based; conditions: GM-CSF 1 ng/mL; for IC50: Homo sapiens, read-out: Cellular selectivity (GM-CSF induced pSTAT5)
Method: The CellSensor irfl-bla TF-1 cell line (LifeTechnologies, K1657) was cultured in RPMI 1640 Medium (Invitrogen 72400-047), 10% Fetal Bovine Serum (Invitrogen, 26400044), 1 mM Sodium pyruvate (Life Technologies, 11360039), 1% MEM NEAA (Life Technologies, 11140-035), 2 ng/ml of human recombinant GM-CSF (Fisher, PHC2015), 1% Penicillin/Streptomycin (Life Technologies, 15140-122) and 5 µg/ml of Blasticidin (ThermoFisher, A1113903).
The cell line was seeded in a T75 flask at 13×10^6 cells/50 mL in starvation medium (Opti-MEM™ I Reduced Serum Medium, no phenol red (Life Technologies, 11058-021), 1 mM Na pyruvate (Life Technologies, 11360039), 1% MEM NEAA (Life Technologies, 11140-035), and 1% Penicillin/Streptomycin (Life Technologies, 15140-122)) for 16 hours at 37° C. under 5% CO2 the day before the assay.
For the assay, CellSensor irfl-bla TF-1 cells were seeded at 30 000 cells/32 μL (starvation medium)/well in a 384-well plate.
Compounds were added on the cells in 4 μL (starvation medium)/well at 10× the final concentration. They were incubated for 30 minutes at 37° C.
Human recombinant carrier-free GM-CSF (ThermoFisher, ref PHC2015) was added to the wells in 4 μL (starvation medium)/well at 10×. The final concentration was 1 ng/mL. Control wells without GM-CSF treatment were added. Plates were incubated for 5 hours at 37° C.
6× LiveBlazer-FRET substrate (Invitrogen, K1085) was added to the wells at 8 μL/well. The substrate was prepared shortly before use by mixing 6 μL of solution A and 60 μL of solution B to 934 μL of solution C. Plates were incubated for 2.5 hours at room temperature in the dark. The plates were read on an Envision (Perkin Elmer) with an excitation at a wavelength of 409 nm and two wavelengths for the emission 520 nm and 450 nm. The ratio between the […] emission was used to calculate the IC50s.
The IC50 for the inhibition of pSTAT5 was calculated with the XLfit software using the 4 Parameter Logistic Model or Sigmoidal Dose-Response Model (model 205).

[3] = Mouse plasma pharmacokinetics, PO 5 mg/kg; format: in vivo
Method: The following example describes the methods used to evaluate the pharmacokinetics of TYK2 inhibitors in vivo following dosing of a compound of the invention.
The pharmacokinetics of test compounds were evaluated in either male CD-1 mice or male C57BL/6 mice when administered by oral gavage and IV bolus injection. The animals were allowed free access to food and water before administration. The plasma samples were analyzed by LC-MS/MS and the concentration of test compound at each time point was determined by linear regression. Pharmacokinetic parameters were calculated from the plasma concentrations by non-compartmental modeling using WinNonlin 8.2.
Oral composition. To prepare a pharmaceutical composition for oral delivery, the test articles described herein were dissolved in DMSO and then mixed with necessary volume of PEG400 followed by […] in water or 50% Kolliphor HS 15 in saline to provide the final concentrations of 0.5 mg/mL or 1 mg/mL (Table 8). The resultant mixtures were suitable for oral administration.
The PK parameters measured in mouse plasma after treatment with TYK2 inhibitor compounds via PO (oral administration) at 5 mg/kg are summarized below in Tables 9-11.

[4] = molecular target: T1, TYK2-JH2 (Homo sapiens, UniProt P29597); experiment: TYK2-JH2 HTRF binding assay (ligand efficiency); conditions: calculated from binding-assay IC50 (Equation 1)
T1 construct: TYK JH2 enzyme mix (ChemPartner: CP20210818A-BV); purchased ChemPartner CP20210818A-BV
T1 sequence (P29597 589-875 limits assumed): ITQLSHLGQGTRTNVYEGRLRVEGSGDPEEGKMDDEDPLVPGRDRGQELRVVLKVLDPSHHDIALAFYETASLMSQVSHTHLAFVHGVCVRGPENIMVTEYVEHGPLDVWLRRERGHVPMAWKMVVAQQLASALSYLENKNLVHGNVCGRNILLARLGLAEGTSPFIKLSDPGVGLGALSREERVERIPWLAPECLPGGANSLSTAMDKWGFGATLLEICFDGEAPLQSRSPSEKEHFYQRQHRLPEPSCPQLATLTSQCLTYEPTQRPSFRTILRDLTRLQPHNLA
Method in brief: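 HTRF competition binding: 0.5 nM His-tagged TYK2 JH2 preincubated 10 min at room temperature with compound (final 0.1 to 0.000005 μM), then 35 nM tracer and anti-6HIS Tb cryptate added for 60 min. Buffer 20 mM HEPES pH 7.5, 10 mM MgCl2, 0.01% Triton X-100, 1 mM DTT; TR-FRET Ex340/Em495/520. Ligand efficiency derived from binding IC50.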

[5] = Brain exposure pharmacokinetics in mice; format: in vivo; conditions: male C57BL/6 mice, oral gavage 5 mg/kg
Method: The brain exposure of 18 was evaluated in male C57BL/6 mice after oral gavage administration at 5 mg/kg. The formulation was 10% DMSO+40% PEG400 in saline. Mice were provided free access to food and water without fasting. Terminal sample collection of plasma and brain tissue were collected at […], 0.25, 0.5, 1, 2, and 4 hours post-dose with n=3 at each timepoint.
(§1) For both rat and mouse studies, brain tissue was washed with 3 volumes of saline prior to homogenization. Brain tissue was homogenized with 3 volumes (v/w) of phosphate buffered saline. Plasma, brain homogenate, and CSF samples (rat only) were analyzed by LC-MS/MS and the concentration of test compound at each time point was determined by linear regression.
(§2) Pharmacokinetic parameters were calculated from the plasma, brain, and CSF concentrations by non-compartmental modeling using WinNonlin 8.2.

[6] = Brain exposure pharmacokinetics in rats; format: in vivo; conditions: male Sprague Dawley rats, oral gavage 10 mg/kg
Method: The brain exposure of exemplary compounds, e.g., 1, 2, and 4 were evaluated in male Sprague Dawley rats after oral gavage administration at 10 mg/kg. The formulation was 5% DMSO+10% PEG400 in saline. Rats were fasted overnight with food returned 4 hours post-dose. CSF was collected by direct needle puncture into the cisterna magna.
as §1, §2

Structure (SMILES): CS(=O)(=O)c1cccnc1Nc1cc(Nc2ccc3c(n2)CCCC3N2CC3(COC3)C2)ncn1 (stereo in doubt) [Compound 5, (R)—N^4-(5-(2-oxa-6-azaspiro[3.3]heptan-6-yl)-5,6,7,8-tetrahydroquinolin-2-yl)-N^6-(3-(methylsulfonyl)pyridin-2-yl)pyrimidine-4,6-diamine]
- IC50 [1]: 4 to 10 µM
- IC50 [2]: > 10 µM
- Half-life (t1/2) [3]: ††† (†††: >1.5)
- Maximum plasma concentration (Cmax) [3]: ††† (†††: >1500)
- Total systemic exposure (AUCinf) [3]: ††† (†††: >2000)
- Ligand Efficiency [4]: †† (††: 0.37-0.39)

Structure (SMILES): C[C@H](c1ccc(Nc2cc(Nc3ncccc3S(C)(=O)=O)ncn2)nc1)N1CC2(COC2)C1 [Compound 17, (R)—N^4-(5-(1-(2-oxa-6-azaspiro[3.3]heptan-6-yl)ethyl)pyridin-2-yl)-N^6-(3-(methylsulfonyl)pyridin-2-yl)pyrimidine-4,6-diamine]
- IC50 [1]: > 10 µM
- Cellular selectivity (GM-CSF induced pSTAT5) [2]: ††††
- Ligand Efficiency [4]: †† (††: 0.37-0.39)

Structure (SMILES): Cc1cccc(Nc2cc(Nc3ncccc3S(C)(=O)=O)ncn2)n1 [Compound 18, N^4-(6-methylpyridin-2-yl)-N^6-(3-(methylsulfonyl)pyridin-2-yl) pyrimidine-4,6-diamine]
- Brain Kpu, u [5]: ††† (††† >0.2 u)
- Ligand Efficiency [4]: ††† (†††: >0.39)

Structure (SMILES): Cc1nc(Nc2cc(Nc3ncccc3S(C)(=O)=O)ncn2)ccc1[C@H](C)N1CC2(COC2)C1 (stereo in doubt) [Compound 12, N^4-(5-(1-(2-oxa-6-azaspiro[3.3]heptan-6-yl)ethyl)-6-methylpyridin-2-yl)-N^6-(3-(methylsulfonyl)pyridin-2-yl)pyrimidine-4,6-diamine]
- IC50 [1]: < 4 µM
- IC50 [2]: < 4 µM
- Half-life (t1/2) [3]: † (†: <1.0)
- Maximum plasma concentration (Cmax) [3]: ††† (†††: >1500)
- Total systemic exposure (AUCinf) [3]: †† (††: 1000-2000)
- Ligand Efficiency [4]: ††† (†††: >0.39)

Structure (SMILES): C[C@@H](c1ccc(Nc2cc(Nc3ncccc3S(C)(=O)=O)ncn2)nc1)N(C)C [Compound 4, (S)—N^4-(5-(1-(dimethylamino)ethyl)pyridin-2-yl)-N^6-(3-(methylsulfonyl)pyridin-2-yl) pyrimidine-4,6-diamine]
- Brain Kpu, u [6]: ††† (††† >0.2 u)
- Ligand Efficiency [4]: ††† (†††: >0.39)

Structure (SMILES): CC(c1ccc(Nc2cc(Nc3ncccc3S(C)(=O)=O)ncn2)nc1C(F)(F)F)N1CC2(COC2)C1 (stereo in doubt) [Compound 11, (R)—N^4-(5-(1-(2-oxa-6-azaspiro[3.3]heptan-6-yl)ethyl)-6-(trifluoromethyl)pyridin-2-yl)-N^6-(3-(methylsulfonyl)pyridin-2-yl)pyrimidine-4,6-diamine]
- IC50 [1]: < 4 µM
- IC50 [2]: > 10 µM
- Half-life (t1/2) [3]: ††† (†††: >1.5)
- Maximum plasma concentration (Cmax) [3]: †† (††: 800-1500)
- Total systemic exposure (AUCinf) [3]: ††† (†††: >2000)
- Ligand Efficiency [4]: †† (††: 0.37-0.39)
